Reference: ChEMBL document CHEMBL3430912, “GSK Tres Cantos Anti-Kinetoplastid Screening (TCAKS) Data”
pIC50: −log10 of the molar value.

Legend:
[1] = test system: Trypanosoma brucei brucei; assay: GSK_TCAKS: pIC50 Trypanosoma brucei viability assay using luminiscence. Assay plates (1536-well) were prepared. T. brucei cultures were harvested and counted in a CASY cell counter. A parasite suspension was prepared at a final concentration of 5 * 10^4 cells/mL in complete HMI9 medium and 6uL was dispensed to all wells containing compounds using a Multidrop Combi dispenser. 6uL of HMI9 media with 0.4% DMSO were dispensed to control columns. Plates were incubated for 24 h at 37C, 5% CO2 then tempered for 10 min at room temperature. ATP content was quantified by adding 4 uL of CellTiter-Glo Reagent (Promega) according to the manufacturer's instructions. Luminescence was measured using a ViewLux.; type: functional, organism-based; conditions: Lister 427, CASY
Trypanosoma cruzi [2] = assay: (§1) GSK_TCAKS: pIC50 Trypanosoma cruzi Imaging: Infected Cells. […] Cells were then washed once with PBS before infection. T. cruzi trypomastigotes, collected at days 5 to 8 after infection from LLC-MK2 parasite infected cultures, were allowed to swim out for 4h at 37C from a centrifuged pellet (2,500 rpm/10 min/room temperature). Trypomastigotes were then collected and counted in a CASY Cell Counter. Trypomastigotes, in supplemented DMEM, were added to H9c2 cultures in a multiplicity of infection of 1 and incubated for 18 h. Cells were washed once with PBS before incubation of the infected H9c2 monolayer with trypsin (Life-Technologies) to detach cells from the flask. Cells were counted in a CASY Cell Counter using a 150 um capillary and their density set at 5 * 10^4 cells per mL in supplemented assay DMEM. Infected H9c2 were dispensed into 384-well poly-lysine coated assay plates at 50uL per well using a Multidrop Combi dispenser. After seeding them, the plates were incubated at 37C, 5% CO2 for 72h. Cultures were then fixed and stained by addition of 50 uL of a solution containing 8% formaldehyde and 4 uM DRAQ5 DNA dye (BioStatus, UK) per well. […] Five images were collected per well for reliable statistical analysis. Automated image analysis was performed with a script developed on Acapella High Content Imaging and Analysis Software (PerkinElmer). Output: percentage of infected cells per well as a second infection marker.; type: functional, organism-based, Rattus norvegicus; conditions: H9c2, 4 h
Trypanosoma cruzi [3] = assay: as §1, with “H2C9” for “Trypanosoma cruzi”, “H9c2 Host Cardiomyocytes.” for “Infected Cells.”, “Number” for “percentage”, “H9c2 Host Cardiomyocytes nuclei to determine drug-related cytotoxicity.” for “infected cells per well as a second infection marker.”; type: functional, organism-based, Rattus norvegicus; conditions: H9c2, 4 h
[4] = GSK_TCAKS: pIC50 HepG2 human cell line viability assay using luminiscence. […] Seeding density was checked to ensure that new mono-layers were not more than 50% confluent at the time of harvesting. Cell suspension was added to 500 mL of the same medium at a final density of 1.2 * 10^5 cells/mL. This cell suspension was dispensed (25 uL, 3000 cells per well) into 384-well clear-bottom plates using a Multidrop Combi dispenser. Prior to addition of the cell suspension, the screening compounds (250 nL) were pre-dispensed into the plates with an Echo liquid handler. Plates were incubated for 48 h at 37C, 5% CO2. After incubation, plates equilibrated at room temperature for 30 min before proceeding to develop the luminescent signal. The signal developer, CellTiter-Glo Reagent, was allowed to equilibrate at room temperature for 30 min and added to the plates (25uL per well) using a Multidrop Combi dispenser. Plates were left for 10 min at room temperature for stabilization and then read using a ViewLux.; type: toxicity, cell-based
Trypanosoma cruzi [5] = assay: GSK_TCAKS: pIC50 Trypanosoma cruzi Imaging: Amastigotes/Cell. […] Cells were then washed once with PBS before infection. T. cruzi trypomastigotes, collected at days 5 to 8 after infection from LLC-MK2 parasite infected cultures, were allowed to swim out for 4h at 37C from a centrifuged pellet (2,500 rpm/10 min/room temperature). Trypomastigotes were then collected and counted in a CASY Cell Counter. Trypomastigotes, in supplemented DMEM, were added to H9c2 cultures in a multiplicity of infection of 1 and incubated for 18 h. Cells were washed once with PBS before incubation of the infected H9c2 monolayer with trypsin (Life-Technologies) to detach cells from the flask. Cells were counted in a CASY Cell Counter using a 150 um capillary and their density set at 5 * 10^4 cells per mL in supplemented assay DMEM. Infected H9c2 were dispensed into 384-well poly-lysine coated assay plates at 50uL per well using a Multidrop Combi dispenser. After seeding them, the plates were incubated at 37C, 5% CO2 for 72h. Cultures were then fixed and stained by addition of 50 uL of a solution containing 8% formaldehyde and 4 uM DRAQ5 DNA dye (BioStatus, UK) per well. […] Five images were collected per well for reliable statistical analysis. Automated image analysis was performed with a script developed on Acapella High Content Imaging and Analysis Software (PerkinElmer). Output: number of amastigotes per cell as infection level measurement.; type: functional, organism-based, Rattus norvegicus; conditions: H9c2, 4 h
Trypanosoma cruzi [6] = assay: GSK_TCAKS: pIC50 Trypanosoma cruzi viability assay using beta-GAL activity. This assay was run at single shot at 5uM compound concentration per well. The biological reagents consisted of NIH-3T3 host cells and trypomastigotes parasitic cells; both cell types were set to a 3.3 * 10^5 cells/mL dilution in assay DMEM by means of a CASY cell counter device using a 60um capillary. 6 uL of the mixture were dispensed per well (about 1 * 10^3 host-cells and 1 * 10^3 parasites) with a Multidrop Combi dispenser. […] In all wells, the percentage of DMSO never exceeded 0.5%. Plates incubated for four days at 37C, 5% CO2. The substrate used for the assay fluorescence intensity (FLINT) readout was resorufin-beta-D-galactopiranoside (Sigma-Aldrich) at 5uM per well. It was diluted in PBS supplemented with the soft detergent Igepal (Fluka).; type: functional, organism-based, Mus musculus; conditions: Tulahuen, NIH3T3
Leishmania donovani [7] = assay: (§2) GSK_TCAKS: pIC50 Leishmania donovani Imaging: Amastigotes/Macrophages. Assay plates (384-well) were prepared by adding 250nL of compound to each well. For single shot assay, the final compound concentration was 5 uM. […] Automated image analysis was performed with a script developed on Acapella High Content Imaging and Analysis Software (PerkinElmer). Output: Average number of amastigotes per macrophage cell were reported for each well.; type: functional, organism-based, Homo sapiens; conditions: THP-1
[8] = molecular target: Sterol 14-alpha demethylase (Trypanosoma cruzi (strain CL Brener), UniProt Q7Z1V1); assay: GSK_TCAKS: pIC50 CYP51 from Trypanosoma cruzi.; type: functional
Leishmania donovani [9] = assay: GSK_TCAKS: pIC50 Leishmania donovani viability assay using fluorescence intensity. Assay plates (1536-well) were prepared by adding 30nL per well of compound. For single shot assay, the final compound concentration was 5uM. […] Briefly, eGFP LdBOB axenic amastigotes were harvested, fixed and counted in a CASY cell counter (Roche-Applied Science). A final concentration of 1.5 * 10^5 cells per well were prepared in amastigote media containing 500 U/mL penicillin/streptomycin (Invitrogen) and 6uL was dispensed to each experimental well using a Multidrop Combi dispenser (Thermo Scientific). 6uL of assay media was dispensed to control columns used as reference for 100% compound response. Following incubation for 72 h at 37C, 5% CO2, 2 uL of resazurin was added to each well at a final concentration of 0.5 mM in phosphate buffered saline (PBS) with IGEPAL (Sigma-Aldrich), 0.05% (v/v).; type: functional, organism-based
Leishmania donovani [10] = assay: as §2, with “Infected Macrophages.” for “Amastigotes/Macrophages.”, “Percent” for “Average number”, “infected” for “amastigotes per”, “cells” for “cell”; type: functional, organism-based, Homo sapiens; conditions: THP-1
[11] = test system: Trypanosoma brucei brucei; assay: GSK_TCAKS: pIC50 Trypanosoma brucei viability assay using fluorescence intensity. Assay plates (1536-well) were prepared by dispensing 25nL of compound solution per well using an Echo acoustic dispenser (Labcyte).; type: functional, organism-based; conditions: Lister 427, 2 h
Leishmania donovani [12] = assay: as §2, with “THP-1 Host Macrophages.” for “Amastigotes/Macrophages.”, “THP-1” for “Average number of amastigotes per macrophage”, “cell count” for “cell”; type: functional, organism-based, Homo sapiens

Sequence of Sterol 14-alpha demethylase (Q7Z1V1 whole entry): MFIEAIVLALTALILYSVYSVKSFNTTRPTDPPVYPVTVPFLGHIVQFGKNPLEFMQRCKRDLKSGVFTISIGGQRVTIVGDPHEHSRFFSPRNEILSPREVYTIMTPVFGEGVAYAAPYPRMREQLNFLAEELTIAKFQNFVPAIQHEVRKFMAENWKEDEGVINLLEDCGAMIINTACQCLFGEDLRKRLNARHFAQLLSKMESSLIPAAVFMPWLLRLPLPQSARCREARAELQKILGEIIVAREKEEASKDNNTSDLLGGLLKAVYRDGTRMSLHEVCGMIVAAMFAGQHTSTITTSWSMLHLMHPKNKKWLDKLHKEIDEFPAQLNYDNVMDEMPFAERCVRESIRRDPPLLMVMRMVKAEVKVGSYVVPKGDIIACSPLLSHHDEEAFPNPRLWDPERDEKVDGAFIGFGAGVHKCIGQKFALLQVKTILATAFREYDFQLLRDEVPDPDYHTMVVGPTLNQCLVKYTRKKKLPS

Structure (SMILES) | pIC50 [1] | pIC50 (Trypanosoma cruzi [2]) | pIC50 (Trypanosoma cruzi [3]) | IC50 at 48 h [4] [µM] | pIC50 (Trypanosoma cruzi [5]) | pIC50 (Trypanosoma cruzi [6]) | pIC50 (Leishmania donovani [7]) | pIC50 [8] | pIC50 (Leishmania donovani [9]) | pIC50 (Leishmania donovani [10]) | pIC50 [11] | pIC50 (Leishmania donovani [12])
O=C(NCCc1csc(-c2ccc(F)cc2)n1)c1ccco1 | 6.30 | 5.80 | < 4.30 | > 100 | 5.90 | 5.65 | < 4.30 | < 4.00 | < 4.30 | < 4.30 | 6.40 | < 4.30
Nc1nc(-c2ccccn2)nc(-n2nc(-c3ccccc3)cc2N)n1 | 5.50 | 5.60 | 5.70 | 10 | 6.50 | 6.30 | 6.10 | < 4.00 | 5.70 | 6.10 | 6.00 | 5.00
CC(C)(C)C(=O)NCCc1csc(-c2ccc(F)cc2)n1 | 6.10 | 5.50 | < 4.30 | > 100 | 5.60 | 5.45 | < 4.30 | 4.10 | < 4.30 | < 4.30 | 6.20 | < 4.30
COCc1cnc2c(c1SCc1c(F)cccc1Cl)c(=O)n(C)c(=O)n2C | < 4.40 | 5.40 | < 4.30 | > 100 | 5.60 | < 4.30 | 5.30 | 4.60 | 5.40 | 5.30 | 5.40 | < 4.30
CNC(=O)C1Cc2ccccc2N1C(=O)COc1cccc(OC)c1 (stereo unspecified) | 6.00 | < 4.30 | < 4.30 | > 100 | < 4.30 | < 4.30 | < 4.30 | 4.00 | < 4.30 | < 4.30 | 6.20 | < 4.30
CCOc1ccc(OCC(=O)N2c3ccccc3CC2C(=O)NC)cc1 (stereo unspecified) | 6.10 | < 4.30 | < 4.30 | > 100 | < 4.30 | < 4.30 | < 4.30 | < 4.00 | < 4.30 | < 4.30 | 6.30 | < 4.30
CNC(=O)C1Cc2ccccc2N1C(=O)Cc1ccccc1 (stereo unspecified) | 6.00 | < 4.30 | < 4.30 | > 100 | < 4.30 | < 4.30 | < 4.30 | < 4.00 | < 4.30 | < 4.30 | 6.20 | < 4.30
CNC(=O)C1Cc2ccccc2N1C(=O)Cc1ccc(OC)cc1 (stereo unspecified) | 6.30 | < 4.30 | < 4.30 | > 100 | < 4.30 | < 4.30 | 4.90 | < 4.00 | < 4.30 | 5.10 | 6.40 | 5.10
CCOc1ccc(CC(=O)N2c3ccccc3CC2C(=O)NC)cc1 (stereo unspecified) | 6.30 | < 4.30 | < 4.30 | > 100 | < 4.30 | < 4.30 | < 4.30 | < 4.00 | < 4.30 | < 4.30 | 6.30 | < 4.30
O=C(CSc1nnc2ccc(-c3ccc(F)cc3)nn12)N1CCCCC1 | 6.30 | 5.70 | < 4.30 | > 100 | 6.00 | 5.60 | < 4.30 | < 4.00 | < 4.30 | < 4.30 | 6.40 | 5.20
CC(C)(C)CC(=O)NCCc1csc(-c2ccc(F)cc2)n1 | 6.30 | 6.00 | < 4.30 | > 100 | 6.10 | 5.90 | 4.80 | 4.70 | < 4.30 | 4.50 | 6.20 | 4.80
O=C(NC(CO)c1ccc(F)cc1)c1ccc(-c2c[nH]c3ncccc23)s1 (stereo unspecified) | 6.10 | 4.80 | 5.40 | 39.8 | 4.90 | 5.00 | 4.70 | 5.90 | 4.50 | 4.60 | 6.60 | 5.00
Nc1nc(-c2ccccc2)cc(-c2nc3cccnc3[nH]2)n1 | 4.80 | 5.70 | 4.90 | 39.8 | 5.80 | 5.50 | 5.60 | < 4.00 | 5.40 | 5.60 | 5.00 | < 4.30
CN(C)S(=O)(=O)c1cccc(CSc2nnc(-c3ccc4c(c3)OCO4)o2)c1 | < 4.40 | 7.00 | < 4.30 | > 100 | 7.30 | 6.30 | 6.20 | 4.90 | 6.00 | 5.70 | 4.50 | < 4.30
N#CN1CC[C@@H](NC(=O)Nc2ccccc2Oc2ccccc2)C1 | 5.10 | 5.40 | 4.70 | 39.8 | 5.30 | 5.30 | 5.40 | < 4.00 | 5.50 | 5.30 | 6.00 | 4.60
CCc1ccc2nc(NC(=O)c3cc(N4CCOCC4)ccn3)sc2c1 | 6.00 | 6.10 | 4.40 | > 100 | 6.30 | 5.60 | 6.10 | < 4.00 | 5.70 | 5.90 | 6.30 | 5.00
Nc1nonc1-c1nc2cncc(C(=O)N3CC[C@H](N)C3)c2n1CC1CC1 | 6.10 | < 4.30 | < 4.30 | > 100 | 4.90 | < 4.30 | 4.40 | 4.90 | < 4.30 | 4.70 | 6.20 | 4.90
Cn1ccnc1CN1CCc2[nH]cnc2C1c1ccccc1OCc1ccccc1 (stereo unspecified) | 6.30 | < 4.30 | < 4.30 | > 100 | < 4.30 | 4.40 | < 4.30 | 5.10 | < 4.30 | < 4.30 | 6.40 | < 4.30
